Laboratory results reported in ChEMBL document CHEMBL4373641, “Synthesis and direct comparison of the anticancer activities of phomopsolides D and E and two 7-oxa-/7-aza-analogues” (Medchemcomm, 2019).
pIC50: −log10 of the molar value.

Legend:
Assay type in all cases: functional, cell-based
TK-10 = assay: Antiproliferative activity against human TK10 cells assessed as reduction in cell viability after 48 hrs by SRB assay; conditions: TK-10, 48 h
OVCAR-4 = assay: Antiproliferative activity against human OVCAR4 cells assessed as reduction in cell viability after 48 hrs by SRB assay; conditions: OVCAR-4, 48 h
NCI-H522 = assay: Antiproliferative activity against human NCI-H522 cells assessed as reduction in cell viability after 48 hrs by SRB assay; conditions: NCI-H522, 48 h, pooled result: one value given for 8 cell lines, strains, targets or settings
SR = assay: Antiproliferative activity against human SR cells assessed as reduction in cell viability after 48 hrs by SRB assay
HOP-92 = assay: Antiproliferative activity against human HOP92 cells assessed as reduction in cell viability after 48 hrs by SRB assay; conditions: HOP-92, 48 h
CCRF-CEM = assay: Antiproliferative activity against human CCRF-CEM cells assessed as reduction in cell viability after 48 hrs by SRB assay
MDA-MB-468 = assay: Antiproliferative activity against human MDA-MB-468 cells assessed as reduction in cell viability after 48 hrs by SRB assay; conditions: MDA-MB-468, 48 h
A498 = assay: Antiproliferative activity against human A498 cells assessed as reduction in cell viability after 48 hrs by SRB assay; conditions: A498, 48 h
HL-60(TB) = assay: Antiproliferative activity against human HL-60(TB) cells assessed as reduction in cell viability after 48 hrs by SRB assay; conditions: HL-60, 48 h
786-0 = assay: Antiproliferative activity against human 786-0 cells assessed as reduction in cell viability after 48 hrs by SRB assay; conditions: 786-0, 48 h
Hs-578T = assay: Antiproliferative activity against human Hs 578T cells assessed as reduction in cell viability after 48 hrs by SRB assay
MOLT-4 = assay: Antiproliferative activity against human MOLT4 cells assessed as reduction in cell viability after 48 hrs by SRB assay; conditions: MOLT-4, 48 h
HT-29 = assay: Antiproliferative activity against human HT-29 cells assessed as reduction in cell viability after 48 hrs by SRB assay; conditions: HT-29, 48 h
ACHN = assay: Antiproliferative activity against human ACHN cells assessed as reduction in cell viability after 48 hrs by SRB assay
MDA-MB-231 = assay: Antiproliferative activity against human MDA-MB-231 cells assessed as reduction in cell viability after 48 hrs by SRB assay; conditions: MDA-MB-231, 48 h
K562 = assay: Antiproliferative activity against human K562 cells assessed as reduction in cell viability after 48 hrs by SRB assay; conditions: K562, 48 h
SW-620 = assay: Antiproliferative activity against human SW620 cells assessed as reduction in cell viability after 48 hrs by SRB assay; conditions: SW-620, 48 h
OVCAR-5 = assay: Antiproliferative activity against human OVCAR5 cells assessed as reduction in cell viability after 48 hrs by SRB assay; conditions: OVCAR-5, 48 h
DU-145 = assay: Antiproliferative activity against human DU145 cells assessed as reduction in cell viability after 48 hrs by SRB assay; conditions: DU-145, 48 h
COLO 205 = assay: Antiproliferative activity against human COLO205 cells assessed as reduction in cell viability after 48 hrs by SRB assay; conditions: COLO 205, 48 h
SK-OV-3 = assay: Antiproliferative activity against human SKOV3 cells assessed as reduction in cell viability after 48 hrs by SRB assay; conditions: SK-OV-3, 48 h
OVCAR-3 = assay: Antiproliferative activity against human OVCAR3 cells assessed as reduction in cell viability after 48 hrs by SRB assay; conditions: OVCAR-3, 48 h
KM12 = assay: Antiproliferative activity against human KM12 cells assessed as reduction in cell viability after 48 hrs by SRB assay; conditions: KM12, 48 h
BT-549 = assay: Antiproliferative activity against human BT549 cells assessed as reduction in cell viability after 48 hrs by SRB assay; conditions: BT-549, 48 h
SF-539 = assay: Antiproliferative activity against human SF539 cells assessed as reduction in cell viability after 48 hrs by SRB assay; conditions: SF-539, 48 h
PC-3 = assay: Antiproliferative activity against human PC3 cells assessed as reduction in cell viability after 48 hrs by SRB assay; conditions: PC-3, 48 h
SN12C = assay: Antiproliferative activity against human SN12C cells assessed as reduction in cell viability after 48 hrs by SRB assay
SF-268 = assay: Antiproliferative activity against human SF268 cells assessed as reduction in cell viability after 48 hrs by SRB assay; conditions: SF-268, 48 h
HCT-116 = assay: Antiproliferative activity against human HCT116 cells assessed as reduction in cell viability after 48 hrs by SRB assay; conditions: HCT-116, 48 h
HCT-15 = assay: Antiproliferative activity against human HCT15 cells assessed as reduction in cell viability after 48 hrs by SRB assay; conditions: HCT-15, 48 h
NCI/ADR-RES = assay: Antiproliferative activity against human NCI/ADR-RES cells assessed as reduction in cell viability after 48 hrs by SRB assay
U-251 = assay: Antiproliferative activity against human U251 cells assessed as reduction in cell viability after 48 hrs by SRB assay; conditions: U-251, 48 h
SNB-75 = assay: Antiproliferative activity against human SNB75 cells assessed as reduction in cell viability after 48 hrs by SRB assay; conditions: SNB-75, 48 h
CAKI-1 = assay: Antiproliferative activity against human CAKI-1 cells assessed as reduction in cell viability after 48 hrs by SRB assay; conditions: CAKI-1, 48 h
MDA-MB-435 = assay: Antiproliferative activity against human MDA-MB-435 cells assessed as reduction in cell viability after 48 hrs by SRB assay; conditions: MDA-MB-435, 48 h
SF-295 = assay: Antiproliferative activity against human SF295 cells assessed as reduction in cell viability after 48 hrs by SRB assay; conditions: SF-295, 48 h
RXF 393 = assay: Antiproliferative activity against human RXF393 cells assessed as reduction in cell viability after 48 hrs by SRB assay; conditions: RXF 393, 48 h
HCC 2998 = assay: Antiproliferative activity against human HCC2998 cells assessed as reduction in cell viability after 48 hrs by SRB assay; conditions: HCC 2998, 48 h
RPMI-8226 = assay: Antiproliferative activity against human RPMI8226 cells assessed as reduction in cell viability after 48 hrs by SRB assay; conditions: RPMI-8226, 48 h
IGROV-1 = assay: Antiproliferative activity against human IGROV1 cells assessed as reduction in cell viability after 48 hrs by SRB assay; conditions: IGROV-1, 48 h
OVCAR-8 = assay: Antiproliferative activity against human OVCAR8 cells assessed as reduction in cell viability after 48 hrs by SRB assay; conditions: OVCAR-8, 48 h
MCF7 = assay: Antiproliferative activity against human MCF7 cells assessed as reduction in cell viability after 48 hrs by SRB assay; conditions: MCF7, 48 h
UO-31 = assay: Antiproliferative activity against human UO31 cells assessed as reduction in cell viability after 48 hrs by SRB assay; conditions: UO-31, 48 h
T47D = assay: Antiproliferative activity against human T47D cells assessed as reduction in cell viability after 48 hrs by SRB assay
UACC-62 = assay: Antiproliferative activity against human UACC62 cells assessed as reduction in cell viability after 48 hrs by SRB assay; conditions: UACC-62, 48 h, pooled result: one value given for 8 cell lines, strains, targets or settings
SNB-19 = assay: Antiproliferative activity against human SNB19 cells assessed as reduction in cell viability after 48 hrs by SRB assay; conditions: SNB-19, 48 h

`C/C=C(\C)C(=O)O[C@H]1C=CC(=O)O[C@H]1CNC(=O)[C@H](C)O` was tested, and the pIC50 (TK-10) was 4.52, the pIC50 (OVCAR-4) was 4.31 to 5.70 and the pIC50 (NCI-H522) was 4.57. The pIC50 (SR) was 4.31 to 5.70, the pIC50 (HOP-92) was 4.31 to 5.70 and the pIC50 (CCRF-CEM) was 4.31 to 5.70. For the same compound, the pIC50 (MDA-MB-468) was 4.31 to 5.70, the pIC50 (A498) was 4.52 and the pIC50 (HL-60(TB)) was 4.31 to 5.70. The pIC50 (786-0) was 4.52, the pIC50 (Hs-578T) was 4.31 to 5.70 and the pIC50 (MOLT-4) was 4.31 to 5.70. It also gave a pIC50 (HT-29) of 4.60, a pIC50 (ACHN) of 4.52 and a pIC50 (MDA-MB-231) of 4.31 to 5.70. It also gave a pIC50 (K562) of 4.31 to 5.70, a pIC50 (SW-620) of 4.60 and a pIC50 (OVCAR-5) of 4.31 to 5.70. For the same compound, the pIC50 (DU-145) was 4.60, the pIC50 (COLO 205) was 4.60 and the pIC50 (SK-OV-3) was 4.31 to 5.70. For the same compound, the pIC50 (OVCAR-3) was 4.31 to 5.70, the pIC50 (KM12) was 4.60 and the pIC50 (BT-549) was 4.31 to 5.70. For the same compound, the pIC50 (SF-539) was 4.31 to 5.70, the pIC50 (PC-3) was 4.60 and the pIC50 (SN12C) was 4.52. For the same compound, the pIC50 (SF-268) was 4.31 to 5.70, the pIC50 (HCT-116) was 4.60 and the pIC50 (HCT-15) was 4.60. For the same compound, the pIC50 (NCI/ADR-RES) was 4.31 to 5.70, the pIC50 (U-251) was 4.31 to 5.70 and the pIC50 (SNB-75) was 4.31 to 5.70. For the same compound, the pIC50 (CAKI-1) was 4.52, the pIC50 (MDA-MB-435) was 4.31 to 5.70 and the pIC50 (SF-295) was 4.31 to 5.70. It also gave a pIC50 (RXF 393) of 4.52, a pIC50 (HCC 2998) of 4.60 and a pIC50 (RPMI-8226) of 4.31 to 5.70. The pIC50 (IGROV-1) was 4.31 to 5.70, the pIC50 (OVCAR-8) was 4.31 to 5.70 and the pIC50 (MCF7) was 4.31 to 5.70. It also gave a pIC50 (UO-31) of 4.52, a pIC50 (T47D) of 4.31 to 5.70 and a pIC50 (UACC-62) of 4.55. It also gave a pIC50 (SNB-19) of 4.31 to 5.70.
`C/C=C(\C)C(=O)O[C@H]1C=CC(=O)O[C@H]1CCC(=O)[C@H](C)O` showed a pIC50 (TK-10) of 4.31 to 5.70, a pIC50 (OVCAR-4) of 4.31 to 5.70 and a pIC50 (NCI-H522) of 4.59. The pIC50 (SR) was 4.31 to 5.70, the pIC50 (HOP-92) was 4.31 to 5.70 and the pIC50 (CCRF-CEM) was 4.31 to 5.70. The pIC50 (MDA-MB-468) was 4.31 to 5.70, the pIC50 (A498) was 4.31 to 5.70 and the pIC50 (HL-60(TB)) was 4.31 to 5.70. For the same compound, the pIC50 (786-0) was 4.31 to 5.70, the pIC50 (Hs-578T) was 4.70 and the pIC50 (MOLT-4) was 4.31 to 5.70. The pIC50 (HT-29) was 4.74, the pIC50 (ACHN) was 4.31 to 5.70 and the pIC50 (MDA-MB-231) was 4.70. The pIC50 (K562) was 4.31 to 5.70, the pIC50 (SW-620) was 4.74 and the pIC50 (OVCAR-5) was 4.31 to 5.70. For the same compound, the pIC50 (DU-145) was 4.64, the pIC50 (COLO 205) was 4.74 and the pIC50 (SK-OV-3) was 4.31 to 5.70. The pIC50 (OVCAR-3) was 4.31 to 5.70, the pIC50 (KM12) was 4.74 and the pIC50 (BT-549) was 4.31 to 5.70. For the same compound, the pIC50 (SF-539) was 4.31 to 5.70, the pIC50 (PC-3) was 4.64 and the pIC50 (SN12C) was 4.31 to 5.70. For the same compound, the pIC50 (SF-268) was 4.31 to 5.70, the pIC50 (HCT-116) was 4.74 and the pIC50 (HCT-15) was 4.74. The pIC50 (NCI/ADR-RES) was 4.70, the pIC50 (U-251) was 4.31 to 5.70 and the pIC50 (SNB-75) was 4.31 to 5.70. The pIC50 (CAKI-1) was 4.31 to 5.70, the pIC50 (MDA-MB-435) was 4.70 and the pIC50 (SF-295) was 4.31 to 5.70. It also gave a pIC50 (RXF 393) of 4.31 to 5.70, a pIC50 (HCC 2998) of 4.74 and a pIC50 (RPMI-8226) of 4.31 to 5.70. The pIC50 (IGROV-1) was 4.31 to 5.70, the pIC50 (OVCAR-8) was 4.31 to 5.70 and the pIC50 (MCF7) was 4.70. For the same compound, the pIC50 (UO-31) was 4.31 to 5.70, the pIC50 (T47D) was 4.70 and the pIC50 (UACC-62) was 4.62. For the same compound, the pIC50 (SNB-19) was 4.31 to 5.70.
